In US7799809B2, “Carboxamide compounds and their use as calpain inhibitors” (Abbott GmbH & Co. KG, priority 2006, dated 2010):

How the values were obtained:
Type in all cases: biochemical
cathepsin S = molecular target: T1, cathepsin S (Homo sapiens, UniProt P25774); test: Cathepsin S enzyme inhibition in vitro (kinetic fluorescence assay); conditions: recombinant human cathepsin S vs calpain I
T1 construct: purchased Calbiochem 219343; host or cells: E. coli
Procedure, shortened: (§1)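 Cathepsin B (0.25 nM, human liver) with 100 μM Z-Phe-Arg-AMC; L (1 nM, human liver) with 2 μM Z-Phe-Arg-AMC; S (0.5 nM, recombinant) with 20 μM Z-Val-Val-Arg-AMC. pH 6.0 MES buffer, 2.5 mM L-cysteine, room temperature. Kinetic fluorescence (ex 390/em 460 nm); apparent Ki from IC50 by Cheng-Prusoff.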

cathepsin B = molecular target: T2, cathepsin B (Homo sapiens, UniProt P07858); test: Cathepsin B enzyme inhibition in vitro (kinetic fluorescence assay); conditions: cathepsin B isolated from human liver vs calpain I
T2 construct: cathepsin B—isolated from human liver (Calbiochem #219362); purchased Calbiochem 219362; host or cells: human liver (tissue-derived)
Procedure, shortened: as §1

cathepsin L = molecular target: T3, cathepsin L (Homo sapiens, UniProt P07711); test: Cathepsin L enzyme inhibition in vitro (kinetic fluorescence assay); conditions: cathepsin L isolated from human liver vs calpain I
T3 construct: cathepsin L—isolated from human liver (Calbiochem #219402); purchased Calbiochem 219402; host or cells: human liver (tissue-derived)
Procedure, shortened: as §1

cathepsin K = molecular target: T4, cathepsin K (Homo sapiens, UniProt P43235); test: Cathepsin K enzyme inhibition in vitro (kinetic fluorescence assay); conditions: cathepsin K activated from recombinant human procathepsin K vs calpain I
T4 construct: purchased Calbiochem 342001; host or cells: E. coli
T4 sequence (P43235 115-329): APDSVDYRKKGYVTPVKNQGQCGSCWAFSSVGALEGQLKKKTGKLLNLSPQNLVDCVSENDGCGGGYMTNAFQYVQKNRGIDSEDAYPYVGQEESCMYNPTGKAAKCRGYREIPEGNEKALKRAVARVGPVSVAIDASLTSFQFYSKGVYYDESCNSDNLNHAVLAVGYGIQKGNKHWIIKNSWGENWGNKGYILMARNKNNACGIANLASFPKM

T1 sequence (P25774 115-331): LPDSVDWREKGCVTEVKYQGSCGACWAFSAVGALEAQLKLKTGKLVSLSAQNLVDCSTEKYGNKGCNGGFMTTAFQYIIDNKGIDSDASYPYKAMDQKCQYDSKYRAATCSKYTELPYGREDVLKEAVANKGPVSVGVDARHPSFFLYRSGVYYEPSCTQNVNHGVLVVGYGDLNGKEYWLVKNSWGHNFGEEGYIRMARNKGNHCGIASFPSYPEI
T3 sequence (P07711 114-333): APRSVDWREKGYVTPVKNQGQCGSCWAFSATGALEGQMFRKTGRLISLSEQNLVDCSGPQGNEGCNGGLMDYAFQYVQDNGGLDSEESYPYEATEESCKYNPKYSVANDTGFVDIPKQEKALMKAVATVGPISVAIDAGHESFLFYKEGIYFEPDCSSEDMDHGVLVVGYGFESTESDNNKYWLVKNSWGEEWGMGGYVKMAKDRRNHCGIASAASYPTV

Row | Molecule | Sel cat. S: Ki(cathepsin S)/Ki(calpain) ratio (cathepsin S) | Sel cat. B: Ki(cathepsin B)/Ki(calpain) ratio (cathepsin B) | Sel cat. L: Ki(cathepsin L)/Ki(calpain) ratio (cathepsin L) | Sel cat. K: Ki(cathepsin K)/Ki(calpain) ratio (cathepsin K)
1 | Cl.NC(=O)C(=O)C(Cc1cccnc1)NC(=O)c1cccnc1-n1ccc(-c2ccccc2)n1 (centres unmarked) [Example 88, N-[3-Amino-2,3-dioxo-1-(pyridin-3-ylmethyl)propyl]-2-(3-phenyl-1H-pyrazol-1-yl)pyridine-3-carboxamide hydrochloride] | ++ (++ means a Ki(cathepsin S)/Ki(calpain) ratio of ≧100) | + (+ means 10≦Ki(cathepsin B)/Ki(calpain)<30) | ++ (++ means a Ki(cathepsin L)/Ki(calpain) ratio of ≧50) | ++ (++ means a Ki(cathepsin K)/Ki(calpain) ratio of ≧30)
2 | CC(C)c1ccc(-c2ccn(-c3ncccc3C(=O)NC(Cc3ccccc3)C(=O)C(N)=O)n2)cc1 (centres unmarked) [Example 87, N-[3-Amino-2,3-dioxo-1-(phenylmethyl)propyl]-2-{3-[4-(1-methylethyl)phenyl]-1H-pyrazol-1-yl}pyridine-3-carboxamide] | ++ (++ means a Ki(cathepsin S)/Ki(calpain) ratio of ≧100) | ++ (++ means a Ki(cathepsin B)/Ki(calpain) ratio of ≧30) | ++ (++ means a Ki(cathepsin L)/Ki(calpain) ratio of ≧50) | ++ (++ means a Ki(cathepsin K)/Ki(calpain) ratio of ≧30)
3 | N-(3-Amino-1-{[4-(methyloxy)phenyl]methyl}-2,3-dioxopropyl)-2-{3-[3-(trifluoromethyl)phenyl]-1H-pyrazol-1-yl}pyridine-3-carboxamide [Example 126] | ++ (++ means a Ki(cathepsin S)/Ki(calpain) ratio of ≧100) | ++ (++ means a Ki(cathepsin B)/Ki(calpain) ratio of ≧30) | ++ (++ means a Ki(cathepsin L)/Ki(calpain) ratio of ≧50) | ++ (++ means a Ki(cathepsin K)/Ki(calpain) ratio of ≧30)
4 | NC(=O)C(=O)C(Cc1ccc(F)cc1)NC(=O)c1cccnc1-n1ccc(-c2ccc(Cl)cc2Cl)n1 (centres unmarked) [Example 114, N-{-3-Amino-1-[(4-fluorophenyl)methyl]-2,3-dioxopropyl}-2-[3-(2,4-dichlorophenyl)-1H-pyrazol-1-yl]pyridine-3-carboxamide] | ++ (++ means a Ki(cathepsin S)/Ki(calpain) ratio of ≧100) | ++ (++ means a Ki(cathepsin B)/Ki(calpain) ratio of ≧30) | ++ (++ means a Ki(cathepsin L)/Ki(calpain) ratio of ≧50) | ++ (++ means a Ki(cathepsin K)/Ki(calpain) ratio of ≧30)
5 | N-{3-Amino-1-[(4-fluorophenyl)methyl]-2,3-dioxopropyl}-2-[3-(2-chloro-3-fluorophenyl)-1H-pyrazol-1-yl]pyridine-3-carboxamide [Example 154] | ++ (++ means a Ki(cathepsin S)/Ki(calpain) ratio of ≧100) | ++ (++ means a Ki(cathepsin B)/Ki(calpain) ratio of ≧30) | ++ (++ means a Ki(cathepsin L)/Ki(calpain) ratio of ≧50) | ++ (++ means a Ki(cathepsin K)/Ki(calpain) ratio of ≧30)
6 | NC(=O)C(=O)C(Cc1ccc(Cl)cc1)NC(=O)c1cccnc1-n1ccc(-c2ccccc2)n1 (centres unmarked) [Example 50, N-[3-Amino-1-(4-chlorobenzyl)-2,3-dioxopropyl]-2-(3-phenyl-1H-pyrazol-1-yl)nicotinamide] | + (+ means 50≦Ki(cathepsin S)/Ki(calpain)<100) | + (+ means 10≦Ki(cathepsin B)/Ki(calpain)<30) | + (+ means 30≦Ki(cathepsin L)/Ki(calpain)<50) | + (+ means 10≦Ki(cathepsin K)/Ki(calpain)<30)
7 | COc1ccccc1-c1ccn(-c2ncccc2C(=O)NC(Cc2ccccc2)C(=O)C(N)=O)n1 (centres unmarked) [Example 90, N-[3-Amino-2,3-dioxo-1-(phenylmethyl)propyl]-2-{3-[2-(methyloxy)phenyl]-1H-pyrazol-1-yl}pyridine-3-carboxamide] | ++ (++ means a Ki(cathepsin S)/Ki(calpain) ratio of ≧100) | ++ (++ means a Ki(cathepsin B)/Ki(calpain) ratio of ≧30) | ++ (++ means a Ki(cathepsin L)/Ki(calpain) ratio of ≧50) | + (+ means 10≦Ki(cathepsin K)/Ki(calpain)<30)
8 | NC(=O)C(=O)C(Cc1ccccc1)NC(=O)c1cccnc1-n1ccc(-c2ccc(F)cc2)n1 (centres unmarked) [Example 38, N-(3-Amino-1-benzyl-2,3-dioxopropyl)-2-[3-(4-fluorophenyl)-1H-pyrazol-1-yl]nicotinamide] | ++ (++ means a Ki(cathepsin S)/Ki(calpain) ratio of ≧100) | + (+ means 10≦Ki(cathepsin B)/Ki(calpain)<30) | ++ (++ means a Ki(cathepsin L)/Ki(calpain) ratio of ≧50) | + (+ means 10≦Ki(cathepsin K)/Ki(calpain)<30)
9 | NC(=O)C(=O)C(Cc1ccccc1)NC(=O)c1cccnc1-n1ccc(-c2cccs2)n1 (centres unmarked) [Example 55, N-(3-Amino-1-benzyl-2,3-dioxopropyl)-2-[3-(2-thienyl)-1H-pyrazol-1-yl]nicotinamide] | ++ (++ means a Ki(cathepsin S)/Ki(calpain) ratio of ≧100) | + (+ means 10≦Ki(cathepsin B)/Ki(calpain)<30) | ++ (++ means a Ki(cathepsin L)/Ki(calpain) ratio of ≧50) | + (+ means 10≦Ki(cathepsin K)/Ki(calpain)<30)
10 | NC(=O)C(=O)C(Cc1ccccc1)NC(=O)c1cccnc1-n1ccc(-c2ccc(F)cc2Cl)n1 (centres unmarked) [Example 71, N-(3-Amino-1-benzyl-2,3-dioxopropyl)-2-[3-(2-chloro-4-fluorophenyl)-1H-pyrazol-1-yl]nicotinamide] | ++ (++ means a Ki(cathepsin S)/Ki(calpain) ratio of ≧100) | ++ (++ means a Ki(cathepsin B)/Ki(calpain) ratio of ≧30) | ++ (++ means a Ki(cathepsin L)/Ki(calpain) ratio of ≧50) | ++ (++ means a Ki(cathepsin K)/Ki(calpain) ratio of ≧30)
11 | NC(=O)C(=O)C(Cc1ccccc1)NC(=O)c1cccnc1-n1ccc(-c2ccccc2F)n1 (centres unmarked) [Example 76, N-(3-Amino-1-benzyl-2,3-dioxopropyl)-2-[3-(2-fluorophenyl)-1H-pyrazol-1-yl]nicotinamide] | ++ (++ means a Ki(cathepsin S)/Ki(calpain) ratio of ≧100) | ++ (++ means a Ki(cathepsin B)/Ki(calpain) ratio of ≧30) | ++ (++ means a Ki(cathepsin L)/Ki(calpain) ratio of ≧50) | + (+ means 10≦Ki(cathepsin K)/Ki(calpain)<30)
12 | COc1ccc(CC(NC(=O)c2cccnc2-n2ccc(-c3cccc(Cl)c3Cl)n2)C(=O)C(N)=O)cc1 (centres unmarked) [Example 153, N-(3-Aamino-1-{[4-(methyloxy)phenyl]methyl}-2,3-dioxopropyl)-2-[3-(2,3-dichlorophenyl)-1H-pyrazol-1-yl]pyridine-3-carboxamide] | ++ (++ means a Ki(cathepsin S)/Ki(calpain) ratio of ≧100) | ++ (++ means a Ki(cathepsin B)/Ki(calpain) ratio of ≧30) | ++ (++ means a Ki(cathepsin L)/Ki(calpain) ratio of ≧50) | ++ (++ means a Ki(cathepsin K)/Ki(calpain) ratio of ≧30)
13 | COc1ccc(Cl)cc1-c1ccn(-c2ncccc2C(=O)NC(Cc2ccccc2)C(=O)C(N)=O)n1 (centres unmarked) [Example 131, N-[3-Amino-2,3-dioxo-1-(phenylmethyl)propyl]-2-{3-[5-chloro-2-(methyloxy)phenyl]-1H-pyrazol-1-yl}pyridine-3-carboxamide] | ++ (++ means a Ki(cathepsin S)/Ki(calpain) ratio of ≧100) | ++ (++ means a Ki(cathepsin B)/Ki(calpain) ratio of ≧30) | ++ (++ means a Ki(cathepsin L)/Ki(calpain) ratio of ≧50) | ++ (++ means a Ki(cathepsin K)/Ki(calpain) ratio of ≧30)
14 | NC(=O)C(=O)C(Cc1ccccc1)NC(=O)c1cccnc1-n1cc2c(n1)-c1ccccc1CC2 (centres unmarked) [Example 63, N-(3-Amino-1-benzyl-2,3-dioxopropyl)-2-(4,5-dihydro-2H-benzo[g]indazol-2-yl)nicotinamide] | ++ (++ means a Ki(cathepsin S)/Ki(calpain) ratio of ≧100) | + (+ means 10≦Ki(cathepsin B)/Ki(calpain)<30) | ++ (++ means a Ki(cathepsin L)/Ki(calpain) ratio of ≧50) | + (+ means 10≦Ki(cathepsin K)/Ki(calpain)<30)
